From US20260355182A1, “ISOQUINOLINE DERIVATIVE, SYNTHESIS METHOD THEREFOR, AND USE THEREOF” (Harbin Gloria Pharmaceuticals Co., Ltd., priority 2023, published 2026)

Key:
Pgk1 = biological target: T1, Pgk1 (Homo sapiens, UniProt P00558); assay: Affinity for Pgk1 protein (Biacore T200); type: binding; conditions: drug alone; amount of small-molecule drug bound
T1 sequence (P00558 1-417): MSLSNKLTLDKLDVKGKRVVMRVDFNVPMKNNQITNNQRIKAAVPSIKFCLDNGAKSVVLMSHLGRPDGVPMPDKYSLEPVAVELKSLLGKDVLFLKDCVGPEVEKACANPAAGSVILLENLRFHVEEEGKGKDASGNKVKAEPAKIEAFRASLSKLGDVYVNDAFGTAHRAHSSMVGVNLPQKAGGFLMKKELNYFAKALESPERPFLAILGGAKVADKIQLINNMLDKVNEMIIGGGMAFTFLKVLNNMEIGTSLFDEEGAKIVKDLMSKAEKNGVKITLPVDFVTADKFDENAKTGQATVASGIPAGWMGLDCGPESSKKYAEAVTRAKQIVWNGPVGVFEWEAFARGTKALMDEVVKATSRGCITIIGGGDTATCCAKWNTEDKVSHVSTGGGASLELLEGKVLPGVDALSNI
Protocol: Example 30: Determination of Affinities of Compounds for Pgk1 Protein
Purified Pgk1 protein (with a concentration of 1 mg/mL) was immobilized on a Biacore T200 chip. […] The obtained curves can calculate parameters such as affinity and Rmax.

[1] = test system: MPTP-induced Parkinson's disease model mice; assay: MPTP-induced mouse model of Parkinson's disease, rotarod and tyrosine hydroxylase Western blot; type: in vivo
Protocol: Male mice aged 3 months were used and fed normally. The acute MPTP modeling method (see Sonsalla P K, Heikkila R E. The influence of dose and dosing interval on MPTP-induced dopaminergic neurotoxicity in mice. Eur J Pharmacol 1986; 129(3): 339-45.) was employed. MPTP was injected intraperitoneally four times in total at a dose of 20 mg/kg body weight per injection, with a 2-hour interval between each injection. MPTP was dissolved in normal saline, and the control group received an equal dose of normal saline. T2 was dissolved in DMSO and diluted with normal saline to the desired concentration. Accordingly, equal doses of DMSO and normal saline were administered during the treatment. On the day of MPTP model establishment, mice were administered either T2 (treatment group) or DMSO (control group). Subsequently, mice in all groups were administered the corresponding drugs daily. Mouse behavior was tested using a rotarod (E103, UGO BASILE). First, mice were pre-trained for two consecutive days at a constant speed of 15 revolutions per minute (15 rpm) until they could stay on the rod for more than 60 seconds. On day 7 after MPTP injection, mice were tested on the rotarod in an accelerating mode (2 rpm to 45 rpm). The latency to fall from the rotarod was recorded, and the behavior was monitored by a camera. After the experiment, the mice were sacrificed, and the striatal brain tissue was harvested for Western blot assay. Tyrosine hydroxylase (TH) is a protein specifically expressed in dopaminergic neurons. Therefore, whether dopaminergic neurons were damaged can be determined by Western blot assay using an anti-TH antibody.

SK-N-SH cells = assay: Effects of compounds on cellular ATP levels (Promega ATP assay); type: cell-based, human; conditions: 1 μM, 48 hours, 5% O2; untreated = 1
Protocol: Effects of compounds on cellular ATP levels.
Human Neuroblastoma Cell Line (SK-N-SH) is a human-derived neuroblastoma cell line. SK-N-SH cells were seeded in a 6-well plate at a density of 6×10^4 cells per well. The cells were cultured for 12 hours under 5% O2. Various drugs at a concentration of 1 μM were added. After 48 hours, the cells were harvested. Cellular ATP levels were measured using the Promega ATP assay kit. The experiment was repeated 6 times to 10 times. The experimental results were illustrated in FIG. 1. […] T1 to T11 were the experimental groups.

al adrenergic receptor = conditions: cited from earlier work
[2] = test system: phosphoglycerate kinase 1 (Pgk1); conditions: previous studies; cited from earlier work
patients = conditions: cited from earlier work
glucose metabolism = conditions: human, in vivo; cited from earlier work
diabetic patients = conditions: cited from earlier work
db/db mice [3] = assay: Hypoglycemic effect in diabetic model db/db mice, intraperitoneal; type: in vivo; conditions: 0.6 mg/Kg i.p., 4 hours
Protocol: Gene knockout db/db mice are a classic model of hyperglycemia and obesity. Under normal feeding conditions, mice aged 3 months or older developed hyperglycemia and obesity. After the mice were provided with only drinking water (fasted) for 6 hours, blood was collected from the tail of the mice to measure blood glucose values. Subsequently, different drugs, including saline (control), liraglutide at 0.6 mg/Kg, low-concentration T6 (T6 low, 0.1 mg/Kg), and high-concentration T6 (T6 high, 0.5 mg/Kg), were injected intraperitoneally. 4 hours later, blood was collected from the tail of the mice to measure the blood glucose levels. Each group consisted of 6 mice. Blood glucose levels before administration (Vbefore) and after administration (Vafter) were obtained for each mouse. The effect of the drug on blood glucose (%) was calculated as follows:
(Vbefore−Vafter)×100/Vbefore.

db/db mice [4] = assay: Acute glucose-response assay in non-fasted db/db mice; type: in vivo; conditions: s.c., 2 h; TZ 0.5, liraglutide 0.6, T6 0.5 mg/Kg
Protocol: The db/db mice were used to evaluate the glucose-lowering activity of compound T6 in comparison with reference metabolic agents (TZ 0.5 mg/Kg, liraglutide 0.6 mg/Kg, T6 0.5 mg/Kg). In FIG. 15, A) for the acute glucose-response assay, drugs were administered to non-fasted db/db mice. Immediately after drug administration (s. c.), mice were deprived of food and water, and blood glucose levels were measured from tail blood samples 2 h later. The relative percentage change in blood glucose was calculated by comparing glucose levels before and after treatment in the same animal. […] HbA1c levels were then measured using a glycated hemoglobin A1c enzyme-linked immunosorbent assay, also referred to as a mouse HbA1c ELISA assay. […] Data are presented as mean±error bars, with individual circles representing individual animals. Statistical significance is indicated as P<0.001 (**) and P<0.0001 (***).

rats = conditions: combined administration of terazosin and propranolol; cited from earlier work
[5] = test system: Parkinson's disease and related diseases; conditions: long-term use; cited from earlier work

Compound: Nc1ncnc2c1ncn2[C@@H]1O[C@H](COP(=O)(O)OP(=O)(O)O)[C@@H](O)[C@H]1O [ADP, reference compound]
- Rmax (Pgk1): 35 RU

Compound: Nc1nc(N2CCN(C(=O)[C@H]3CCCO3)CC2)cc2cc3c(cc12)OCO3 [Compound T1]
- Rmax (Pgk1): 116 RU

Compound: Nc1nc(N2CCN(C(=O)[C@@H]3CCCO3)CC2)cc2cc3c(cc12)OCO3 [Compound T2]
- Rmax (Pgk1): 122 RU
- Tyrosine hydroxylase level / dopaminergic neurons ([1]; T2 0.1 mg/Kg, striatum, Western blot): exerted a protective effect on dopaminergic neurons
- Motor ability (rotarod) ([1]; T2 0.1, 0.3 and 1 mg/Kg, day 7 after MPTP): exerted protective effects

Compound: CC1Oc2cc3cc(N4CCN(C(=O)[C@H]5CCCO5)CC4)nc(N)c3cc2O1 (stereo partly drawn) [Compound T3]
- Rmax (Pgk1): 93 RU

Compound: CC1(C)Oc2cc3cc(N4CCN(C(=O)[C@H]5CCCO5)CC4)nc(N)c3cc2O1 [Compound T4]
- Rmax (Pgk1): 75 RU

Compound: Nc1nc(N2CCN(C(=O)[C@H]3CCCO3)CC2)cc2cc3c(cc12)CCO3 [Compound T5]
- Rmax (Pgk1): 86 RU

Compound: Nc1nc(N2CCN(C(=O)C3CCCC3)CC2)cc2cc3c(cc12)OCO3 [Compound T7]
- Rmax (Pgk1): 159 RU

Compound: Nc1nc(N2CCN(C(=O)[C@H]3CCCN3)CC2)cc2cc3c(cc12)OCO3 [Compound T8]
- Rmax (Pgk1): 87 RU

Compound: Nc1nc(N2CCN(C(=O)[C@@H]3CCCN3)CC2)cc2cc3c(cc12)OCO3 [Compound T9]
- Rmax (Pgk1): 87 RU

Compound: Nc1nc(N2CCN(C(=O)[C@H]3CCCO3)CC2)cc2cc3c(cc12)OCCO3 [Compound T10]
- Rmax (Pgk1): None
- Activity in increasing cellular ATP (SK-N-SH cells): no such activity of increasing cellular ATP

Compound: Nc1nc(N2CCN(C(=O)c3ccco3)CC2)cc2cc3c(cc12)OCO3 [Compound T11]
- Rmax (Pgk1): None
- Activity in increasing cellular ATP (SK-N-SH cells): no such activity of increasing cellular ATP

Compound: COc1cc2cc(N3CCN(C(=O)C4CCCO4)CC3)nc(N)c2cc1OC (stereo not drawn) [TZ-md]
- Inhibition of the al adrenergic receptor (al adrenergic receptor): does not inhibit the al adrenergic receptor
- Reduction of affinity for the al adrenergic receptor (al adrenergic receptor; substitution of quinazoline nitrogen by carbon, vs terazosin): more than 1000 fold
- Binding to / activation of Pgk1 [2]: still retains the effect of activating Pgk1

Compound: COc1cc2nc(N(C)CCCNC(=O)C3CCCO3)nc(N)c2cc1OC (stereo not drawn) [alfuzosin]
- Side effects (patients): intraoperative floppy iris syndrome (IFIS), hypotension, fatigue, dizziness, syncope, and blurred vision

Compound: COC1=C(OC)C(=O)C(C/C=C(\C)CC/C=C(\C)CC/C=C(\C)CC/C=C(\C)CC/C=C(\C)CC/C=C(\C)CC/C=C(\C)CC/C=C(\C)CC/C=C(\C)CCC=C(C)C)=C(C)C1=O [coenzyme Q10]
- Clinical efficacy on glucose metabolism (glucose metabolism): either no effect or clinical efficacy in only a small subset of the population

Compound: CN(CC(=O)O)C(=N)N [creatine]
- Clinical efficacy on glucose metabolism (glucose metabolism): either no effect or clinical efficacy in only a small subset of the population

Compound: COc1cc2nc(N3CCN(C(=O)C4COc5ccccc5O4)CC3)nc(N)c2cc1OC (stereo not drawn) [doxazosin]
- Blood glucose and lipid levels (diabetic patients): efficacy is extremely limited or ineffective
- Side effects (patients): intraoperative floppy iris syndrome (IFIS), hypotension, fatigue, dizziness, syncope, and blurred vision

Compound: CCCCCCCCCCCCCCCC(=O)N[C@@H](CCC(=O)NCCCC[C@H](NC(=O)[C@H](C)NC(=O)[C@H](C)NC(=O)[C@H](CCC(N)=O)NC(=O)CNC(=O)[C@H](CCC(=O)O)NC(=O)[C@H](CC(C)C)NC(=O)[C@H](Cc1ccc(O)cc1)NC(=O)[C@H](CO)NC(=O)[C@H](CO)NC(=O)[C@@H](NC(=O)[C@H](CC(=O)O)NC(=O)[C@H](CO)NC(=O)[C@@H](NC(=O)[C@H](Cc1ccccc1)NC(=O)[C@@H](NC(=O)CNC(=O)[C@H](CCC(=O)O)NC(=O)[C@H](C)NC(=O)[C@@H](N)Cc1cnc[nH]1)[C@@H](C)O)[C@@H](C)O)C(C)C)C(=O)N[C@@H](CCC(=O)O)C(=O)N[C@@H](Cc1ccccc1)C(=O)N[C@H](C(=O)N[C@@H](C)C(=O)N[C@@H](Cc1c[nH]c2ccccc12)C(=O)N[C@@H](CC(C)C)C(=O)N[C@H](C(=O)N[C@@H](CCCNC(=N)N)C(=O)NCC(=O)N[C@@H](CCCNC(=N)N)C(=O)NCC(=O)O)C(C)C)[C@@H](C)CC)C(=O)O [liraglutide, reference compound]
- Hypoglycemic effect (liraglutide) (db/db mice [3]): optimal hypoglycemic effect
- Acute change in blood glucose (db/db mice [4]): marked reduction in blood glucose

Compound: CN(C)C(=N)N=C(N)N [metformin, reference compound]
- Clinical efficacy on glucose metabolism (glucose metabolism): either no effect or clinical efficacy in only a small subset of the population

Compound: CC(C)NCC(O)COc1cccc2ccccc12 (stereo not drawn) [propranolol]
- Blood glucose in rats (rats): did not affect blood glucose in rats

Compound: CO[C@H]1C[C@@H]2CC[C@@H](C)[C@@](O)(O2)C(=O)C(=O)N2CCCC[C@H]2C(=O)O[C@H]([C@H](C)C[C@@H]2CC[C@@H](O)[C@H](OC)C2)CC(=O)[C@H](C)/C=C(\C)[C@@H](O)[C@@H](OC)C(=O)[C@H](C)C[C@H](C)/C=C/C=C/C=C/1C [rapamycin, reference compound]
- Clinical efficacy on glucose metabolism (glucose metabolism): either no effect or clinical efficacy in only a small subset of the population

Compound: Oc1ccc(C=Cc2cc(O)cc(O)c2)cc1 [resveratrol, reference compound]
- Clinical efficacy on glucose metabolism (glucose metabolism): either no effect or clinical efficacy in only a small subset of the population

Compound: CCOc1ccccc1OCCN[C@H](C)Cc1ccc(OC)c(S(N)(=O)=O)c1 [tamsulosin]
- Side effects (patients): intraoperative floppy iris syndrome (IFIS), hypotension, fatigue, dizziness, syncope, and blurred vision
- Effect on incidence of Parkinson's disease and related diseases [5]: do not exhibit similar effects

Compound: O=C(O)c1cccnc1 [vitamin B3]
- Clinical efficacy on glucose metabolism (glucose metabolism): either no effect or clinical efficacy in only a small subset of the population

Compound: insulin
- Clinical efficacy on glucose metabolism (glucose metabolism): either no effect or clinical efficacy in only a small subset of the population
